22 compounds from US9718819B2 (Merck Sharp & Dohme Corp., priority 2012, dated 2017) can be followed below.

Broadly, the IC50 is the concentration that inhibits the measured activity by half.

Structures are written as SMILES.

The assay has as its target HIV-1 RT wild-type enzyme (Human immunodeficiency virus type 1 group M subtype B (isolate HXB2) (HIV-1), UniProt P04585). Put plainly: HIV-1 reverse transcriptase inhibitory activity (RT polymerase assay). Format: biochemical. The note with it: HIV-1 RT wild-type enzyme 83 pM; RNA-dependent DNA polymerase activity; read-out: IC50. The method, then: Determination of HIV-1 Reverse Transcriptase Inhibitory Activity
The heterodimeric nucleic acid substrate used in the HIV-1 RT polymerase reactions was generated by annealing the DNA primer, biotinylated pD500 (Sigma Aldrich, USA, 5′-biotin-ttg aaa tga ctg cgg tac ggc-3′), SEQ ID NO. 1 to the nucleotide RNA template t500 (derived from hepatitis C virus [HCV] sequence, IBA, Germany, 5′-[…]-3′), SEQ ID NO 2). […] The mixture was then preincubated on an orbital shaker for 30 min at room temperature in microtiter plates (Costar 3365, Corning, USA). A polymerization reaction was initiated by the addition of RNA template/pD500 DNA primer hybrid (16.6 nM final of RNA/DNA hybrid) and dNTPs (2 μM dATP, dGTP, dCTP and 66.6 nM Ru-dUTP (Meso Scale Discovery, USA)). Plate was sealed and incubated for 5-10 min at room temperature on an orbital shaker. Plate was then incubated for 90 min at 37° C. and reactions quenched with 60 μl quenching buffer (50 mM EDTA, 0.7% BSA, 0.7% Tween-20, 0.017% sodium azide in PBS). The resulting solution was incubated at room temperature for an additional 5 min and then 50 μL was transferred to pre-blocked Avidin plates (L15AA, Meso Scale Discovery). Each well of Avidin plate was blocked for 1 h at room temperature with 100 μL 5% BSA in PBS. Blocking solution was removed by tapping vigorously on filter paper to remove all excess liquid. Reaction on pre-blocked avidin plate proceeded for 60 min at room temperature and then contents removed by tapping vigorously on filter paper to remove all excess liquid. After washing plate 3 times with 150 μL 1×PBS and blotting dry between cycles, 150 μL 1× Read Buffer T (4× Read Buffer T, Meso Scale Discovery) was added and incubated for 5 min at room temperature before counting on a Sector Imager […] (Meso Scale Discovery). Titration curves and IC50 values were calculated using a four parameter logisitc fit according to standard procedures. Briefly, % Inhibition=100×((sample raw value)−(mean value of the low control or 0% inhibition))/((mean value of wells representing 100% inhbition)−(mean value of 0% inhbition)). In this assay, low control wells contain DMSO (0% inhbition) and 100% inhibition wells contain 1 μM efavirenz.
In the case of `Cc1ccc(F)c(-c2cc(Cn3cnc(C(F)(F)F)c(Oc4cc(Cl)cc(C#N)c4)c3=O)n[nH]c2=O)c1` [Example 39, 3-chloro-5-((1-((5-(2-fluoro-5-methylphenyl)-6-oxo-1,6-dihydropyridazin-3-yl)methyl)-6-oxo-4-(trifluoromethyl)-1,6-dihydropyrimidin-5-yl)oxy)benzonitrile], the IC50 was determined as 10 nM.

Consider `N#Cc1cc(Cl)cc(Oc2c(C(F)(F)F)ncn(Cc3cc(-c4ccc(F)cc4Cl)c(=O)[nH]n3)c2=O)c1` [Example 40, 3-chloro-5-((1-((5-(2-chloro-4-fluorophenyl)-6-oxo-1,6-dihydropyridazin-3-yl)methyl)-6-oxo-4-(trifluoromethyl)-1,6-dihydropyrimidin-5-yl)oxy)benzonitrile], for which the IC50 was 70 nM.

For `N#Cc1cc(Cl)cc(Oc2c(C(F)(F)F)ncn(Cc3cc(-c4cccc(F)c4Cl)c(=O)[nH]n3)c2=O)c1` [Example 41, 3-chloro-5-((1-((5-(2-chloro-3-fluorophenyl)-6-oxo-1,6-dihydropyridazin-3-yl)methyl)-6-oxo-4-(trifluoromethyl)-1,6-dihydropyrimidin-5-yl)oxy)benzonitrile], the IC50 worked out at 59 nM.

On to `Cc1ccc(-c2cc(Cn3cnc(C(F)(F)F)c(Oc4cc(Cl)cc(C#N)c4)c3=O)n[nH]c2=O)c(F)c1` [Example 42, 3-chloro-5-((1-((5-(2-fluoro-4-methylphenyl)-6-oxo-1,6-dihydropyridazin-3-yl)methyl)-6-oxo-4-(trifluoromethyl)-1,6-dihydropyrimidin-5-yl)oxy)benzonitrile], for which the IC50 was found to be 7 nM.

For the compound `N#Cc1cc(Cl)cc(Oc2c(C(F)(F)F)ncn(Cc3cc(-c4cccc(Cl)c4F)c(=O)[nH]n3)c2=O)c1` [Example 43, 3-chloro-5-((1-((5-(3-chloro-2-fluorophenyl)-6-oxo-1,6-dihydropyridazin-3-yl)methyl)-6-oxo-4-(trifluoromethyl)-1,6-dihydropyrimidin-5-yl)oxy)benzonitrile], the IC50 turned out to be 9 nM.

`COc1cccc(-c2cc(Cn3cnc(C(F)(F)F)c(Oc4cc(Cl)cc(C#N)c4)c3=O)n[nH]c2=O)c1F` [Example 44, 3-chloro-5-((1-((5-(2-fluoro-3-methoxyphenyl)-6-oxo-1,6-dihydropyridazin-3-yl)methyl)-6-oxo-4-(trifluoromethyl)-1,6-dihydropyrimidin-5-yl)oxy)benzonitrile]: the IC50 came to 4 nM.

Take `COc1ccc(-c2cc(Cn3cnc(C(F)(F)F)c(Oc4cc(Cl)cc(C#N)c4)c3=O)n[nH]c2=O)c(F)c1` [Example 45, 3-chloro-5-((1-((5-(2-fluoro-4-methoxyphenyl)-6-oxo-1,6-dihydropyridazin-3-yl)methyl)-6-oxo-4-(trifluoromethyl)-1,6-dihydropyrimidin-5-yl)oxy)benzonitrile]: the IC50 stood at 6 nM.

As to `N#Cc1cc(Cl)cc(Oc2c(C(F)(F)F)ncn(Cc3cc(-c4ccc(Cl)c(F)c4)c(=O)[nH]n3)c2=O)c1` [Example 46, 3-chloro-5-((1-((5-(4-chloro-3-fluorophenyl)-6-oxo-1,6-dihydropyridazin-3-yl)methyl)-6-oxo-4-(trifluoromethyl)-1,6-dihydropyrimidin-5-yl)oxy)benzonitrile], the 50% inhibitory concentration (IC50) was 5 nM.

Turning to `N#Cc1cc(Cl)cc(Oc2c(C(F)(F)F)ncn(Cc3cc(-c4cc(Cl)ccc4F)c(=O)[nH]n3)c2=O)c1` [Example 47, 3-chloro-5-((1-((5-(5-chloro-2-fluorophenyl)-6-oxo-1,6-dihydropyridazin-3-yl)methyl)-6-oxo-4-(trifluoromethyl)-1,6-dihydropyrimidin-5-yl)oxy)benzonitrile], the IC50 was 11 nM.

With `N#Cc1cc(Cl)cc(Oc2c(C(F)(F)F)ncn(Cc3cc(-c4cc(F)ccc4F)c(=O)[nH]n3)c2=O)c1` [Example 48, 3-chloro-5-((1-((5-(2,5-difluorophenyl)-6-oxo-1,6-dihydropyridazin-3-yl)methyl)-6-oxo-4-(trifluoromethyl)-1,6-dihydropyrimidin-5-yl)oxy)benzonitrile], the IC50 is 9 nM.

Regarding `Cc1ccc(F)cc1-c1cc(Cn2cnc(C(F)(F)F)c(Oc3cc(Cl)cc(C#N)c3)c2=O)n[nH]c1=O` [Example 50], the IC50 worked out at 165 nM.

For `COc1cccc(F)c1-c1cc(Cn2cnc(C(F)(F)F)c(Oc3cc(Cl)cc(C#N)c3)c2=O)n[nH]c1=O` [Example 51, 3-chloro-5-((1-((5-(2-fluoro-6-methoxyphenyl)-6-oxo-1,6-dihydropyridazin-3-yl)methyl)-6-oxo-4-(trifluoromethyl)-1,6-dihydropyrimidin-5-yl)oxy)benzonitrile], the IC50 was 358 nM.

For the compound `COc1ccc(-c2cc(Cn3cnc(C(F)(F)F)c(Oc4cc(Cl)cc(C#N)c4)c3=O)n[nH]c2=O)cc1F` [Example 52, 3-chloro-5-((1-((5-(3-fluoro-4-methoxyphenyl)-6-oxo-1,6-dihydropyridazin-3-yl)methyl)-6-oxo-4-(trifluoromethyl)-1,6-dihydropyrimidin-5-yl)oxy)benzonitrile], the IC50 came to 4 nM.

`CC(C)(C)c1ccc(-c2cc(Cn3cnc(C(F)(F)F)c(Oc4cc(Cl)cc(C#N)c4)c3=O)n[nH]c2=O)cc1` [Example 53, 3-((1-((5-(4-(tert-butyl)phenyl)-6-oxo-1,6-dihydropyridazin-3-yl)methyl)-6-oxo-4-(trifluoromethyl)-1,6-dihydropyrimidin-5-yl)oxy)-5-chlorobenzonitrile]: the IC50 was 70 nM.

As for `N#Cc1cc(Cl)cc(Oc2c(C(F)(F)F)ncn(Cc3cc(-c4cccc(C#N)c4)c(=O)[nH]n3)c2=O)c1` [Example 54, 3-chloro-5-((1-((5-(3-cyanophenyl)-6-oxo-1,6-dihydropyridazin-3-yl)methyl)-6-oxo-4-(trifluoromethyl)-1,6-dihydropyrimidin-5-yl)oxy)benzonitrile], the IC50 stood at 8 nM.

On to `N#Cc1cc(Cl)cc(Oc2c(C(F)(F)F)ncn(Cc3cc(-c4cc(F)c(F)c(F)c4)c(=O)[nH]n3)c2=O)c1` [Example 55, 3-chloro-5-((6-oxo-1-((6-oxo-5-(3,4,5-trifluorophenyl)-1,6-dihydropyridazin-3-yl)methyl)-4-(trifluoromethyl)-1,6-dihydropyrimidin-5-yl)oxy)benzonitrile], for which the IC50 stood at 11 nM.

Turning to `Cc1cc(F)ccc1-c1cc(Cn2cnc(C(F)(F)F)c(Oc3cc(Cl)cc(C#N)c3)c2=O)n[nH]c1=O` [Example 56, 3-chloro-5-((1-((5-(4-fluoro-2-methylphenyl)-6-oxo-1,6-dihydropyridazin-3-yl)methyl)-6-oxo-4-(trifluoromethyl)-1,6-dihydropyrimidin-5-yl)oxy)benzonitrile], the IC50 was 76 nM.

In the case of `N#Cc1cc(Cl)cc(Oc2c(C(F)(F)F)ncn(Cc3cc(-c4cccc5c4OCC5)c(=O)[nH]n3)c2=O)c1` [Example 57, 3-chloro-5-((1-((5-(2,3-dihydrobenzofuran-7-yl)-6-oxo-1,6-dihydropyridazin-3-yl)methyl)-6-oxo-4-(trifluoromethyl)-1,6-dihydropyrimidin-5-yl)oxy)benzonitrile], the IC50 worked out at 11 nM.

Consider `Cc1ccc(-c2cc(Cn3cnc(C(F)(F)F)c(Oc4cc(Cl)cc(C#N)c4)c3=O)n[nH]c2=O)cc1F` [Example 58, 3-chloro-5-((1-((5-(3-fluoro-4-methylphenyl)-6-oxo-1,6-dihydropyridazin-3-yl)methyl)-6-oxo-4-(trifluoromethyl)-1,6-dihydropyrimidin-5-yl)oxy)benzonitrile], for which the IC50 was 4 nM.

With `COc1ccc(F)cc1-c1cc(Cn2cnc(C(F)(F)F)c(Oc3cc(Cl)cc(C#N)c3)c2=O)n[nH]c1=O` [Example 59, 3-chloro-5-((1-((5-(5-fluoro-2-methoxyphenyl)-6-oxo-1,6-dihydropyridazin-3-yl)methyl)-6-oxo-4-(trifluoromethyl)-1,6-dihydropyrimidin-5-yl)oxy)benzonitrile], the IC50 was found to be 125 nM.

As for `Cc1cc(F)cc(-c2cc(Cn3cnc(C(F)(F)F)c(Oc4cc(Cl)cc(C#N)c4)c3=O)n[nH]c2=O)c1` [Example 60, 3-chloro-5-((1-((5-(3-fluoro-5-methylphenyl)-6-oxo-1,6-dihydropyridazin-3-yl)methyl)-6-oxo-4-(trifluoromethyl)-1,6-dihydropyrimidin-5-yl)oxy)benzonitrile], the IC50 is 7 nM.

On to `COc1cc(F)cc(-c2cc(Cn3cnc(C(F)(F)F)c(Oc4cc(Cl)cc(C#N)c4)c3=O)n[nH]c2=O)c1` [Example 61, 3-chloro-5-((1-((5-(3-fluoro-5-methoxyphenyl)-6-oxo-1,6-dihydropyridazin-3-yl)methyl)-6-oxo-4-(trifluoromethyl)-1,6-dihydropyrimidin-5-yl)oxy)benzonitrile], for which the IC50 came to 11 nM.
